ChEMBL document CHEMBL4033755, “19F-NMR-Based Dual-Site Reporter Assay for the Discovery and Distinction of Catalytic and Allosteric Kinase Inhibitors” (ACS Med Chem Lett, 2017)
The source made the active and inactive calls. No cut-off for these calls is given here.

How the values were obtained:
[1] = molecular target: T1, Tyrosine-protein kinase ABL1 (Homo sapiens, UniProt P00519); assay: Binding affinity to allosteric site of N-terminal His6-tagged ABL (83 to 534 residues) (unknown origin) expressed in Escherichia coli co-expressing Protein Tyrosine Phosphatase 1b at 25 uM in presence of ABL001
[2] = molecular target: T1, Tyrosine-protein kinase ABL1; assay: Binding affinity to catalytic site of N-terminal His6-tagged ABL (83 to 534 residues) (unknown origin) expressed in Escherichia coli co-expressing Protein Tyrosine Phosphatase 1b by NMR spectroscopy based dual-site competition assay
[3] = molecular target: T1, Tyrosine-protein kinase ABL1; assay: Displacement of ALLO-1 from allosteric site of N-terminal His6-tagged ABL (83 to 534 residues) (unknown origin) expressed in Escherichia coli co-expressing Protein Tyrosine Phosphatase 1b at 25 to 250 uM by 19F NMR spectroscopy based dual-site competition assay
[4] = molecular target: T1, Tyrosine-protein kinase ABL1; assay: Displacement of CAT-1 from catalytic site of N-terminal His6-tagged ABL (83 to 534 residues) (unknown origin) expressed in Escherichia coli co-expressing Protein Tyrosine Phosphatase 1b at 25 and 50 uM by 19F NMR spectroscopy based dual-site competition assay
[5] = molecular target: T1, Tyrosine-protein kinase ABL1; assay: Displacement of CAT-1 from catalytic site of N-terminal His6-tagged ABL (83 to 534 residues) (unknown origin) expressed in Escherichia coli co-expressing Protein Tyrosine Phosphatase 1b at 25 to 250 uM by 19F NMR spectroscopy based dual-site competition assay

T1 sequence (P00519 whole entry, the tested form may be a part): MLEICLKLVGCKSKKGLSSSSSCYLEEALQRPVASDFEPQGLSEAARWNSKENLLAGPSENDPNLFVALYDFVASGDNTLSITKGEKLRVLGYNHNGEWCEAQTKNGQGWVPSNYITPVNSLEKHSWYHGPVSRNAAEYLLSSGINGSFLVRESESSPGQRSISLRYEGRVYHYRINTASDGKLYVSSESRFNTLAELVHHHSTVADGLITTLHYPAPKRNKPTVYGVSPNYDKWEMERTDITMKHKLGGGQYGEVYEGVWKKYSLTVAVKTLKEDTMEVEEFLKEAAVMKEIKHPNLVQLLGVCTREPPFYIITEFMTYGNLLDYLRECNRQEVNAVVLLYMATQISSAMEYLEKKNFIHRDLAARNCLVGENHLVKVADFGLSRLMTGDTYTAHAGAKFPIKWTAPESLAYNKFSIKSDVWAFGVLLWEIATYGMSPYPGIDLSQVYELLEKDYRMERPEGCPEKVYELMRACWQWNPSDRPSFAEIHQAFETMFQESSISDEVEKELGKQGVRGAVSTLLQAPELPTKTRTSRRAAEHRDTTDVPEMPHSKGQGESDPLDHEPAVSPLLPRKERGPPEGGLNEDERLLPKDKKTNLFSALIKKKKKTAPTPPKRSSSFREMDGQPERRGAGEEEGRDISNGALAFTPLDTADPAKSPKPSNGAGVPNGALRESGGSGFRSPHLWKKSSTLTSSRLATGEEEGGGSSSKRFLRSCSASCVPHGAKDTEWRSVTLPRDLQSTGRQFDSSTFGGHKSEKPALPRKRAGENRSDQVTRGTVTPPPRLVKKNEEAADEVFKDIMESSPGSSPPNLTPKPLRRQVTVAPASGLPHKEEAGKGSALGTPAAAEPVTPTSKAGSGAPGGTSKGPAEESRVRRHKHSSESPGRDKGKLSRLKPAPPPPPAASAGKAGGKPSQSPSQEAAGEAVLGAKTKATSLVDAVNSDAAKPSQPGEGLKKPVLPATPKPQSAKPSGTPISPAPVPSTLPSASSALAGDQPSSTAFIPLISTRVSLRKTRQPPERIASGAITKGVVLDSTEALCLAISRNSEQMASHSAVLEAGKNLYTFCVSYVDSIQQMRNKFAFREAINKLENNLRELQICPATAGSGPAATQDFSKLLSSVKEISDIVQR

| Activity [1] | Kd [2] [µM] | inhibition [3] | inhibition [4] | inhibition [5] | Structure (SMILES) |
| --- | --- | --- | --- | --- | --- |
| Active | 43 |  |  |  | NC(=O)C1CCN(c2ccc(C(F)(F)F)cn2)CC1 |
|  |  | Active | inactive | Active | FC(F)(F)Oc1ccc(Nc2ccncn2)cc1 |
